This test has as its target T1, human recombinant GST-PAK1-KD protein (Homo sapiens, UniProt Q13153).
T1 construct: residues #249-545 of human PAK1, UniProtKP/Swiss Q13153; His6 (N); made in house; host or cells: Sf9 insect cells, pAcGP67 baculovirus expression vector
The test can be described thus: GST-PAK1-KD (kinase domain) biochemical assay, microfluidic mobility shift. The note with it: PAK1 Ki class, read-out: Ki. As to the method:
Activity of human recombinant GST-PAK1-KD protein was assessed in vitro assay by observing the phosphorylation of a fluorogenic peptide substrate.
The peptide substrate is a consensus sequence based on various PAK1 substrates reported in the scientific literature. […] Incubations were carried out at 22° C. in MatriCal MP101 384-well Metriplates™. […] Following the 30-minute incubation, the assay mixtures were quenched by the addition of 3 μL of 250 mM EDTA, and the substrate and phosphorylated product were separated by capillary electrophoresis and detected using LabChip® Caliper 3000 (Caliper Life Sciences).

Structures are written as SMILES. Where two headings read alike, the source gives them in different places.

T1 sequence (Q13153 249-545): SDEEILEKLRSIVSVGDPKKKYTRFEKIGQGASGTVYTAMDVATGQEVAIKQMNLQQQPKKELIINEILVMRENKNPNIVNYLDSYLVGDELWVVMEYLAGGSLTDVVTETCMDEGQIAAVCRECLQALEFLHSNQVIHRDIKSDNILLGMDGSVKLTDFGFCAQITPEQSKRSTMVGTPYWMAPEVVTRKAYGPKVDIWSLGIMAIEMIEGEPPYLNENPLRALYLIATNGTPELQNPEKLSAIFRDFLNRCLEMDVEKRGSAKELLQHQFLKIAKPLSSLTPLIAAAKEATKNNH

As for `C[C@H](Nc1nccc(Nc2cc(OCc3ccccc3)[nH]n2)n1)c1ccc2[nH]cnc2c1` [I-21, N^2-[(1S)-1-(1H-Benzimidazol-5-yl)ethyl]-N^4-(5-benzyloxy-1H-pyrazol-3-yl)pyrimidine-2,4-diamine], the Ki (Table I) is 50 to 250 nM.
For `CC(C)c1cc(Nc2ccnc(NCc3cccc4[nH]ccc34)n2)n[nH]1` [I-58, N^2-((1H-indol-4-yl)methyl)-N^4-(5-isopropyl-1H-pyrazol-3-yl)pyrimidine-2,4-diamine], the Ki (Table I) lay within 50 to 250 nM.
On to `Cc1c(CNc2ncc(F)c(Nc3cc(C4CC4)[nH]n3)n2)ccc2[nH]cnc12` [II-8, N^4-(5-Cyclopropyl-1H-pyrazol-3-yl)-5-fluoro-N^2-[(4-methyl-1H-benzimidazol-5-yl)methyl]pyrimidine-2,4-diamine], for which, under “Table II”, the Ki lay within 50 to 250 nM.
`Fc1cc(CNc2nccc(Nc3cc(C4CC4)[nH]n3)n2)c2cc[nH]c2c1` [I-53, N^4-(5-cyclopropyl-1H-pyrazol-3-yl)-N^2-((6-fluoro-1H-indol-4-yl)methyl)pyrimidine-2,4-diamine]: the inhibitory constant (Ki) (Table I) was under 50 nM.
For `Clc1cnc(NCc2cccc3[nH]ccc23)nc1Nc1cc(C2CC2)[nH]n1` [I-49, N^2-((1H-indol-4-yl)methyl)-5-chloro-N^4-(5-cyclopropyl-1H-pyrazol-3-yl)pyrimidine-2,4-diamine], the Ki (Table I) fell in the range of 250 to 1000 nM.
With `C[C@H](Nc1nccc(Nc2cc(C3CC3)[nH]n2)n1)c1ccc2[nH]ccc2c1Cl` [I-22, (S)—N^2-(1-(4-chloro-1H-indol-5-yl)ethyl)-N^4-(5-cyclopropyl-1H-pyrazol-3-yl)pyrimidine-2,4-diamine], under “Table I”, the Ki is 50 to 250 nM.
On to `Cc1ccc(CNc2nccc(Nc3cc(C4CC4)[nH]n3)n2)c2cc[nH]c12` [I-52, N^4-(5-Cyclopropyl-1H-pyrazol-3-yl)-N^2-((7-methyl-1H-indol-4-yl)methyl)pyrimidine-2,4-diamine], for which the Ki (Table I) is 50 to 250 nM.
On to `Cc1cc(CNc2ncc(F)c(Nc3cc(C4CC4)[nH]n3)n2)c2cn[nH]c2c1` [II-25, N^4-(5-Cyclopropyl-1H-pyrazol-3-yl)-5-fluoro-N^2-((6-methyl-1H-indazol-4-yl)methyl)-pyrimidine-2,4-diamine], for which the Ki (Table II) is under 50 nM.
`CN(Cc1ccc2[nH]cnc2c1Cl)c1ncc(F)c(Nc2cc(C(F)(F)F)[nH]n2)n1` [II-39, N^2-((4-Chloro-1H-benzo[d]imidazol-5-yl)methyl)-5-fluoro-N^4-(5-(trifluoromethyl)-1H-pyrazol-3-yl)-N2-methylpyrimidine-2,4-diamine]: the Ki (Table II) fell in the range of 50 to 250 nM.
For `CN(Cc1ccc2[nH]cnc2c1)c1ncc(F)c(Nc2cc(C3CC3)[nH]n2)n1` [II-103, N^2-((1H-benzo[d]imidazol-5-yl)methyl)-N^4-(5-cyclopropyl-1H-pyrazol-3-yl)-5-fluoro-N^2-methylpyrimidine-2,4-diamine], the Ki (Table II) lay in the range of 50 to 250 nM.
Turning to `O=C(c1c[nH]c2cccc(CNc3nccc(Nc4cc(C5CC5)[nH]n4)n3)c12)C(F)(F)F` [I-37, 1-(4-((4-(5-cyclopropyl-1H-pyrazol-3-ylamino)pyrimidin-2-ylamino)methyl)-1H-indol-3-yl)-2,2,2-trifluoroethanone], under “Table I”, the Ki was under 50 nM.
Take `CC[C@@H](Nc1nccc(Nc2cc(C3CC3)[nH]n2)n1)c1ccc2[nH]cnc2c1` [I-43, N^2-[(1R)-1-(1H-benzimidazol-5-yl)propyl]-N^4-(5-cyclopropyl-1H-pyrazol-3-yl)pyrimidine-2,4-diamine]: the Ki (Table I) was in the range of 250 to 1000 nM.
As to `CC(C)N(Cc1cc(F)cc2[nH]ncc12)c1ncc(F)c(Nc2cc(C3CC3)[nH]n2)n1` [II-96, N^4-(5-cyclopropyl-1H-pyrazol-3-yl)-5-fluoro-N^2-((6-fluoro-1H-indazol-4-yl)methyl)-N^2-isopropylpyrimidine-2,4-diamine], the Ki (Table II) was under 50 nM.
For the molecule `CN(Cc1ccc2[nH]cnc2c1Cl)c1nccc(Nc2cc(C3(F)CC3)[nH]n2)n1` [II-55, N^2-((4-chloro-1H-benzo[d]imidazol-5-yl)methyl)-N^4-(5-(1-fluorocyclorpropyl)-1H-pyrazol-3-yl)-N^2-methylpyrimidine-2,4-diamine], the Ki (Table II) is under 50 nM.
As to `Cc1ccc2[nH]ccc2c1CNc1nccc(Nc2cc(C3CC3)[nH]n2)n1` [I-122, N^4-(5-Cyclopropyl-1H-pyrazol-3-yl)-N^2-((5-methyl-1H-indol-4-yl)methyl)pyrimidine-2,4-diamine], under “Table I”, the Ki lay in the range of 50 to 250 nM.
As for `Fc1cc(CNc2nccc(Nc3cc([C@H]4C[C@@H]4F)[nH]n3)n2)c2cc[nH]c2c1` [II-82, N^2-((6-fluoro-1H-indol-4-yl)methyl)-N^4-(5-((1R,2S)-2-fluorocyclopropyl)-1H-pyrazol-3-yl)pyrimidine-2,4-diamine], for the setting “Table II”, the Ki is under 50 nM.
For `Fc1cc(CNc2nccc(Nc3cc(C4CC4)[nH]n3)n2)cc2nc[nH]c12` [I-96, N^4-(5-cyclopropyl-1H-pyrazol-3-yl)-N^2-((7-fluoro-1H-benzo[d]imidazol-5-yl)methyl)pyrimidine-2,4-diamine], the Ki (Table I) fell in the range of 50 to 250 nM.
Turning to `Cc1c[nH]c2ccc(CNc3nccc(Nc4cc(C5CC5)[nH]n4)n3)cc12` [I-25, N^4-(5-cyclopropyl-1H-pyrazol-3-yl)-N^2-((3-methyl-1H-indol-5-yl)methyl)pyrimidine-2,4-diamine], under “Table I”, the Ki lay in the range of 50 to 250 nM.
As for `C[C@H](Nc1nccc(Nc2cc([C@H]3C[C@H]3F)[nH]n2)n1)c1ccc2[nH]cnc2c1` [I-68, N^2—((S)-1-(1H-benzo[d]imidazol-5-yl)ethyl)-N^4-(5-((1R,2R)-2-fluorocyclopropyl)-1H-pyrazol-3-yl)pyrimidine-2,4-diamine], the Ki (Table I) is under 50 nM.
For the molecule `CCc1cc(Nc2nc(N(C)Cc3ccc4[nH]cnc4c3Cl)ncc2F)n[nH]1` [II-69, N^2-((4-chloro-1H-benzo[d]imidazol-5-yl)methyl)-N^4-(5-ethyl-1H-pyrazol-3-yl)-5-fluoro-N^2-methylpyrimidine-2,4-diamine], the Ki (Table II) was in the range of 250 to 1000 nM.
Consider `C[C@H](Nc1nccc(Nc2cc(C3CC3)[nH]n2)n1)c1cccc2[nH]ccc12` [I-98, N^4-(5-cyclopropyl-1H-pyrazol-3-yl)-N^2-[(1S)-1-(1H-indol-4-yl)ethyl]pyrimidine-2,4-diamine], for which, under “Table I”, the Ki is under 50 nM.
As for `CCN(Cc1ccc2[nH]cnc2c1)c1ncc(F)c(Nc2cc(C3CC3)[nH]n2)n1` [II-104, N^2-((1H-benzo[d]imidazol-5-yl)methyl)-N^4-(5-cyclopropyl-1H-pyrazol-3-yl)-N^2-ethyl-5-fluoropyrimidine-2,4-diamine], the Ki (Table II) lay in the range of 50 to 250 nM.
Take `Fc1cc2[nH]cnc2cc1CNc1nccc(Nc2cc(C3CC3)[nH]n2)n1` [I-28, N^4-(5-Cyclopropyl-1H-pyrazol-3-yl)-N^2-((6-fluoro-1H-benzo[d]imidazol-5-yl)methyl)pyrimidine-2,4-diamine]: the Ki (Table I) lay in the range of 50 to 250 nM.
The same measure, in the same setting: for `C[C@H](Nc1nccc(Nc2cc([C@@H]3C[C@H]3F)[nH]n2)n1)c1ccc2[nH]ccc2c1` [I-72, N^2—((S)-1-(1H-indol-5-yl)ethyl)-N^4-(5-((1S,2R)-2-fluorocyclopropyl)-1H-pyrazol-3-yl)pyrimidine-2,4-diamine] the value was under 50 nM; for `Cc1c(CNc2nccc(Nc3cc(C4CC4)[nH]n3)n2)ccc2[nH]cnc12` [I-16, N^4-(5-Cyclopropyl-1H-pyrazol-3-yl)-N^2-((4-methyl-1H-benzo[d]imidazol-5-yl)methyl)pyrimidine-2,4-diamine], 50 to 250 nM.
Take `Cc1cc(Nc2ccnc(N(C)Cc3ccc4[nH]cnc4c3Cl)n2)n[nH]1` [II-76, N^2-((4-chloro-1H-benzo[d]imidazol-5-yl)methyl)-N^2-methyl-N^4-(5-methyl-1H-pyrazol-3-yl)pyrimidine-2,4-diamine]: the Ki (Table II) was under 50 nM.
The same measure, in the same setting: for `CN(C)CCN(Cc1cc(F)cc2[nH]ncc12)c1ncc(F)c(Nc2cc(C3CC3)[nH]n2)n1` [II-86, N^4-(5-cyclopropyl-1H-pyrazol-3-yl)-N^2-(2-(dimethylamino)ethyl)-5-fluoro-N^2-((6-fluoro-1H-indazol-4-yl)methyl)pyrimidine-2,4-diamine] the value was under 50 nM.
With `CC(C)(O)c1cc(Nc2cc(C3CC3)[nH]n2)nc(NCc2cccc3[nH]ccc23)n1` [I-85, 2-(2-((1H-indol-4-yl)methylamino)-6-(5-cyclopropyl-1H-pyrazol-3-ylamino)pyrimidin-4-yl)propan-2-ol], where the note is “Table I”, the Ki is 50 to 250 nM.
On to `Fc1cc(CNc2ncc(Cl)c(Nc3cc(C4CC4)[nH]n3)n2)c2cn[nH]c2c1` [II-106, 5-chloro-N^4-(5-cyclopropyl-1H-pyrazol-3-yl)-N^2-((6-fluoro-1H-indazol-4-yl)methyl)pyrimidine-2,4-diamine], for which the Ki (Table II) lay in the range of 50 to 250 nM.
The same measure, in the same setting: for `CNCCN(Cc1cc(F)cc2[nH]ncc12)c1nccc(Nc2cc(C3CC3)[nH]n2)n1` [II-47, N^4-(5-cyclopropyl-1H-pyrazol-3-yl)-N^2-((6-fluoro-1H-indazol-4-yl)methyl)-N^2-(2-(methylamino)ethyl)pyrimidine-2,4-diamine] the value was under 50 nM.
Consider `C[C@H](Nc1nccc(Nc2cc(C3CCCO3)[nH]n2)n1)c1ccc2[nH]cnc2c1` (stereo partly drawn) [I-44, N^2—((S)-1-(1H-benzo[d]imidazol-5-yl)ethyl)-N^4-(5-(tetrahydrofuran-2-yl)-1H-pyrazol-3-yl)pyrimidine-2,4-diamine], for which the Ki (Table I) is 50 to 250 nM.
With `CN(Cc1ccc2[nH]cnc2c1Cl)c1ncc(F)c(Nc2cc(C(C)(C)C)[nH]n2)n1` [II-42, N^4-(5-tert-Butyl-1H-pyrazol-3-yl)-N^2-((4-chloro-1H-benzo[d]imidazol-5-yl)methyl)-5-fluoro-N^2-methylpyrimidine-2,4-diamine], the Ki (Table II) lay in the range of 50 to 250 nM.
On the same count and under the same terms, for `Cc1nc2c(CNc3nccc(Nc4cc(C5CC5)[nH]n4)n3)cc(F)cc2[nH]1` [II-34, N^4-(5-Cyclopropyl-1H-pyrazol-3-yl)-N^2-((6-fluoro-2-methyl-1H-benzo[d]imidazol-4-yl)-methyl)pyrimidine-2,4-diamine] the value was 50 to 250 nM.

For orientation: Ki means the dissociation constant of the complex between target and ligand, obtained from inhibition or displacement.

The values above are taken from patent publication US8637537B2, “Serine/threonine kinase inhibitors” (Genentech, Inc., priority 2011, dated 2014).
